Measured values taken from patent publication US20100075993A1, “SMALL MOLECULE INHIBITORS AGAINST WEST NILE VIRUS REPLICATION” (DREXEL UNIVERSITY, priority 2005, published 2010).

Assays:
BHK 26.5 replicon cells = assay: MTT toxicity assay on BHK 26.5 replicon cells; type: cell-based
From the text: The HTS strategy follows the flowchart outlined in FIG. 2. 35,000 compounds were screened from a chemical library described below, using a cutoff of 50% reduction in luminescence readout as the criteria for further study. Upon completion of the screen, approximately 1100 compounds were selected, making the hit rate of 3%. This is considerably higher than expected, implying many false positive and/or cytotoxic compounds. Nevertheless, the compounds were picked out from the “daughter” plates and re-checked at a single 10 μM concentration. In addition, a duplicate 96 well plates were also plated and the toxicity of the compounds was determined in an MTT assay. Upon completion of these assays, most compounds were disqualified as either false positives or being toxicity to cells. As a result, only a small number of compounds were further analyzed directly from the “mother” plate stock. After IC50 determination and secondary assay to rule out luciferase inhibitors, 23 “hits” were identified.
(§1) Replicon-harboring cells were plated 96-well plates at 10,000 cells per well in MEM plus 3% FBS. 24 hours after plating, compounds were added to the wells by a Robotic liquid handler (Biomek NX) to a final concentration of 10 μM and 1% DMSO. For each 96 well plate, A1 to A8 were left open, H1 to H4 contained 1% DMSO, H5-H8 contained Mycophenolic acid (Sigma-Aldrich, St. Louis, Mo.), which was included as positive controls. After 24 hours of treatment, the media were removed and the luciferase activity expressed in the replicon cells was quantified. When cyto-toxicity was measured, duplicate 96 well plates were plated with BHK 26.5 replicon cells. One plate was used for luciferase assay and one plate was used for measuring toxicity using MTT assay.
(§2) Compound toxicity was determined by MTT assay. For the MTT assay, the cell medium was removed and the monolayers were incubated with 100 μl/well of 0.5 mg/ml MTT for 6 h at 37° C. The MTT solution was then aspirated and 100 μl/well of the 10% SDS (in 0.01N HCl) was added, followed by spectrophotometric quantitation (570 nm) of the insoluble MIT reaction product.

BHK cells = assay: toxicity (MTT, CC50) in BHK cells parallel to WNV infection assay; type: cell-based; conditions: MTT assay, 40 μM highest concentration used; read-out: Tox CC50
Procedure: (§3) Several of these original compounds selected from the WNV replicon based screen were evaluated in an antiviral assay against WNV live virus. […] Modifications of this compound would be further investigated
(§4) The toxicity of 101-G7 was also measured by MTT assay and CC50 was calculated. 40 μM is highest concentration used.
as §2

[1] = as above; type: cell-based; conditions: hamster; highest concentration used 40 μM
Procedure: as §3, §4, §2

WNV = WNV yield reduction assay (live virus) on BHK cells; type: cell-based, West Nile virus
Procedure: The antiviral assay for the 309-F6 compounds was conducted on BHK cells. The virus produced in the presence of 1% DMSO or various concentrations of compounds was tittered on Vero cells. The amount of virus relative to the 1% DMSO control was plotted on the y-axis; the concentration of the compound 309F6 is shown in μM on the x-axis. Data from two independently treated wells (Test 1 and Test 2) are shown.
To measure activity against live WNV, BHK cells were plated in 96-well plates at a concentration of 12,000 cells/well. One day later the cells were infected with WNV for 1 h at an MOI of 0.05. The cells were then washed once and re-fed with fresh DMEM containing dilutions of the test compound. Plates were then incubated at 37° C. for 48 h, the supernatant collected and the WNV produced titered. For virus titration, Vero cells were plated in 96-well plates at 8000 cells/well and incubated overnight. The Vero cell monolayer were then infected for 1 h with various dilutions of the WNV supernatant, overlaid with media containing 0.6% tragacanth (ICN, CA) and incubated at 37° C. for 48 h. The culture media was then aspirated; the plate was rinsed, air-dried, and fixed with 50 μl/well acetone/methanol (50:50). Viral foci were detected for enumeration by immunostaining as described previously (15).

WNV replicon = WNV replicon luciferase assay in BHK 26.5 cells (HTS, re-test, IC50); type: cell-based, West Nile virus
Procedure: Ten micromolar concentrations of a selected compound were incubated with BHK 26.5 cells expressing luciferase whose activity is dependent upon WNV replicon replication (FIG. 1A). Primary “hits” were defined by the ability to reduce the amount of luciferase enzyme activity by more than 50%, compared to controls.
To quantify and rank the activity of the 23 remaining compound “hits”, a serial dilution of each compound was incubated with WNV replicon cells to determine the concentration that inhibits 50% of the luciferase readout (IC50s). […] A number of compounds had significant effect only at the highest, 10 μM concentration. However, several compounds had IC50s between 2 and 5 (Table 3), which is very reasonable for primary HTS hits from a compound library. Only a few compounds could cause 90% inhibition in the replicon cells at the concentrations tested.
as §1
Luciferase assay was performed by using the STEADY GLO reagent (Promega Corp. Madison, Wis.) according to the manufacturer's recommendation with slight modifications. Briefly, the culture media from the 96 wells were removed by dumping on paper towels.
100 μl of a 1:1 mixture of luciferase regent and culture media were added to the plate. After 5-minute incubation, the luminescence was read on a TOPCOUNT (PerkinElmer, Wellesley, Mass.).

WNV RNA = assay: Northern blot of WNV RNA in compound treated replicon cells; type: cell-based, West Nile virus; conditions: 48-hour treatment, compounds 10 μM, MPA 2.5%
Procedure: FIG. 6 is a picture of a Northern blot gel of compound treated WNV replicon cells. 4×10^4 cells were seeded in 24 well plates. After 24 hours, the cells were treated with DMSO (lanes 2, 3) or the non-specific inhibitors, MPA (lane 1) or the compounds […] (lane 4), 18-B3 (lane 5) or 52-F2 (lane 6). After 48 hours, total RNA were isolated, separated on denaturing agrose gels and transferred to nylon membrane. Total RNA from a non-replicon cell (Huh-7 cell) was loaded in lane 7 as negative control. The membrane was probed with [^32P]-dCTP-labeled WNV NS5 and human beta-actin. The signal was quantified using a BioRad phosphoimager and WNV RNA level was calculated using beta-actin as a reference.
To confirm that the compounds can indeed inhibit WNV RNA replication, the WNV RNA level in the replicon cells treated with compounds by Northern blot analysis. Several hit compounds, 18-B3, 275-F9, 275-D9, 52-F2 and MPA were selected to treat the BHK 26.5 cells at 10 μM. […] The “hit” compounds 18-B3 and 275-F9 reduced WNV RNA by 1.5 and 2 fold, respectively (FIG. 6, lanes 4, 5). 18-B3 is one of the nine compounds that have similar structures while 275-F9 is one from another class of four compounds (Table 3).
Total cellular RNA was extracted by using the RNEASY kit (Qiagen NV, Netherlands). Northern blot analysis was done according to the protocol of Gu et al. 2002 (8). Briefly, 5 μg total RNA was electrophoresed through a 1.0% agarose gel containing 2.2M formaldehyde, transferred to a nylon membrane and immobilized by UV cross-linking (Stratagene, La Jolla, Calif.). After pre-hybridization in 5 ml of QuickHyb (Amersham, Piscataway, N.J. GE Healthcare, Giles, UK), [2P] dCTP-labeled probe made by random primer labeling of a 2.7 kb NS5 DNA fragment and a human beta-actin DNA at 65° C. The membrane was washed twice in 2×SSC/0.1% SDS for 10 min at room temperature and twice in 0.1×SSC/0.1% SDS for 15 min at 68° C. Membranes were exposed to Molecular Imager FX phosphoimager (BioRad, Hercules, Calif.) and the radiographic signals were collected and quantitated.

WNV NS3 protein = assay: Western blot of WNV protein in compound treated replicon cells; type: cell-based, West Nile virus; conditions: 48-hour treatment, up to 10 uM; MPA 2.5 ug/ml
Procedure: Mycophenolic acid (MPA) was used as positive control in the experiment. 4×10^4 cells were seeded in 24 well plates 24 hours before the various concentrations of compounds were added. After 48 hours of drug treatment, SDS-Sample buffer were added to the wells to lyse the cells. The protein samples were separated on SDS-PAGE and transferred to PVDF membrane. Viral protein was detected by probing with a monoclonal antibody against WNV. The same membrane was stripped and probed for beta-actin with the signals shown at the bottom of the blot.
Although it is reassuring that multiple tests have yielded similar positive results, the ability of the compounds to inhibit WNV replication was further assessed in secondary assays. In the western blot analysis shown in FIG. 5, total cell proteins were prepared from WNV replicon cells treated with the hit compounds and the viral protein NS3 was detected with a monoclonal […] against West Nile virus (15). The same blots were stripped and probed for beta-actin to show equal loading. […] When compared with the IC50 determined for these compounds in the luciferase assay, there was a good correlation between the luciferase reduction and the viral protein reduction.
Total cell lysates from replicon cells were harvested from replicon cells in 1×SDS sample buffer. The lysates were heated at 70° C. for 10 min in the presence of DTT before electrophoresis on a 10% Tris-glycine SDS polyacrylamide gel (Invitrogen) in 1× Tris-glycine buffer. The protein was transferred to PVDF (Invitrogen) membrane. Following the transfer, the membrane was rinsed once with TBS containing 0.5% Tween-20 (TBS-Tween) and blocked in TBS-Tween containing 5% non-fat milk for 1 h. After washing with PBS-Tween, the membrane was incubated with the primary WNV antibody (15) at 1:3000 dilutions for 1 h at 25° C. Prior to incubation with HRP conjugated-mouset IgG secondary antibody (Amersham, Life Science, Piscataway, N.J.) diluted 1:5000, the blot was washed in PBS-Tween. Following the secondary antibody incubation, the blot was washed again and treated with Super Signal Chemiluminescent Reagent (Pierce) according to the manufacturer's protocol and exposed to X-ray film. For controls, the blots were stripped and re-probed with an antibody to beta-actin (Chemicon), which was detected with a goat anti-mouse horseradish peroxidase conjugate.

luciferase enzyme = molecular target: T1, luciferase enzyme (Photinus pyralis, UniProt P08659); assay: in vitro luciferase enzyme assay with cell lysates; type: biochemical; conditions: lysate of WNV replicon cell, 30 minutes incubation, up to 10 μM
T1 construct: expressed in transfected cells; host or cells: BHK 26.5 (BHK cells harbouring the WNV subgenomic replicon with the Luc gene); used as cell lysate
T1 sequence (P08659 whole entry): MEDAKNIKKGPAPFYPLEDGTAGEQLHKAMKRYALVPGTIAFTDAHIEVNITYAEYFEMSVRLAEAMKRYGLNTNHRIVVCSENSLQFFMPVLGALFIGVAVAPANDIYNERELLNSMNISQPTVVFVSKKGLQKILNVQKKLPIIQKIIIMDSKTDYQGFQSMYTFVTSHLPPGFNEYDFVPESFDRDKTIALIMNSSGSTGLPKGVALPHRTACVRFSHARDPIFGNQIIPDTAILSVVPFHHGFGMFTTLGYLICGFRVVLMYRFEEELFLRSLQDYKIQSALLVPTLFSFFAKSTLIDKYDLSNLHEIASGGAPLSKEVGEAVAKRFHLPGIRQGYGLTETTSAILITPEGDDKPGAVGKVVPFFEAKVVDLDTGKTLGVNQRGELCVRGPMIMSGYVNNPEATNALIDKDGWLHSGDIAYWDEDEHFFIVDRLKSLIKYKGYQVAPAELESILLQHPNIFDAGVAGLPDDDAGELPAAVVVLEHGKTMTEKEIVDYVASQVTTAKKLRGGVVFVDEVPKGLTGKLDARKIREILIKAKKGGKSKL
Procedure: In two separate experiments, compounds were either tested with 3, 5, 10 μM or only 10 μM concentrations. The luciferase enzyme cell lysates were incubated with the indicated compounds for 30 minutes before luciferase substrate was added and the luminescence was measured. 1% DMSO was used as controls.
Although the initial HTS and the repeat assays have identified a number of compounds capable of reducing the luciferase activity produced in the WNV replicon BHK 26.5 cell line. It is conceivable that some of these inhibitors could have inhibited the luciferase enzyme itself rather than the WNV viral replication. To rule out this possibility, the identified compounds were tested in an in vitro luciferase enzyme assay by incubating the compounds with cell lysates prepared from the WNV replicon cell. […] The inhibition was not observed when the compounds were added immediately before luminescence reading, but after a 30-minute incubation of […] and the cell lysate, indicating a direct inhibition of the luciferase enzyme by the compounds.

| SMILES | Toxicity (uM)* (BHK 26.5 replicon cells; MTT assay) [µM] | toxicity in replicon assays (BHK 26.5 replicon cells; re-synthesized compound, MTT) | CC50 (BHK cells) [µM] | CC50 [1] [µM] | IC50 (WNV; West Nile virus, BHK, read-out: IC50 in WNV infection assay, re-synthesized, three independent experiments in duplicate) [µM] | activity in the WNV infection assay (WNV; live WNV) | IC50 (WNV replicon; West Nile virus, 24 h) [µM] | Fold decrease (HTS) (WNV replicon; luciferase activity, 10 μM compound, 24 hours, BHK 26.5 cells) [Fold] | Fold decrease (Re-test) (WNV replicon; luciferase activity, re-checked at a single 10 μM concentration) [Fold] | reducing the luciferase activity of the WNV replicon cell (WNV replicon; re-synthesized compound, 24 and 48 hour incubation) | WNV RNA reduction (WNV RNA) | WNV NS3 protein level (western blot) (WNV NS3 protein) | luciferase enzyme activity in cell lysate (luciferase enzyme) |
| --- | --- | --- | --- | --- | --- | --- | --- | --- | --- | --- | --- | --- | --- |
| Cc1ccc(-c2csc(Nc3ccc(S(=O)(=O)Nc4cc(C)on4)cc3)n2)cc1 [Compound 101-G7, N-(5-Methyl-isoxazol-3-yl)-4-(4-p-tolyl-thiazol-2-ylamino)-benzenesulfonamide] | >10 | about 80 μM | > 40 | > 40 | 3 to 15 | retained activity | 5 | 6 | 2 | good activity |  |  |  |
| COc1c(C)c2c(c(O)c1C/C=C(\C)CCC(=O)O)C(=O)OC2 [MPA, Mycophenolic acid, reference compound] |  |  |  |  |  |  |  |  |  |  | more than five fold | reduced WNV NS3 protein level | did not reduce the luciferase activity |
